# Assay results as given in PMC7206119, “RIP1 inhibition blocks inflammatory diseases but not tumor growth or metastases” (Cell Death and Differentiation, 2019).
# How the values were obtained:
# Test in all cases: biochemical
# Design in all cases: DiscoverX kinase panel, active-site competition binding (KINOMEscan type), percent of control at one concentration
# Conditions in all cases: competition binding, percent of control
# ITK = ITK (Homo sapiens, UniProt Q08881)
# CLK1 = CLK1 (Homo sapiens, UniProt P49759)
# PLK2 = PLK2 (Homo sapiens, UniProt Q9NYY3)
# EPHB1 = EPHB1 (Homo sapiens, UniProt P54762)
# p38-gamma = biological target: T1, p38-gamma (Homo sapiens, UniProt P53778)
# T1 construct: gene MAPK12
# [1] = biological target: T2, ABL1(Q252H)-phosphorylated (Homo sapiens, UniProt P00519, Q252H)
# T2 construct: phosphorylated
# PRKCD = PRKCD (Homo sapiens, UniProt Q05655)
# TRPM6 = TRPM6 (Homo sapiens, UniProt Q9BX84)
# TRPM6, sequence (Q9BX84 whole entry): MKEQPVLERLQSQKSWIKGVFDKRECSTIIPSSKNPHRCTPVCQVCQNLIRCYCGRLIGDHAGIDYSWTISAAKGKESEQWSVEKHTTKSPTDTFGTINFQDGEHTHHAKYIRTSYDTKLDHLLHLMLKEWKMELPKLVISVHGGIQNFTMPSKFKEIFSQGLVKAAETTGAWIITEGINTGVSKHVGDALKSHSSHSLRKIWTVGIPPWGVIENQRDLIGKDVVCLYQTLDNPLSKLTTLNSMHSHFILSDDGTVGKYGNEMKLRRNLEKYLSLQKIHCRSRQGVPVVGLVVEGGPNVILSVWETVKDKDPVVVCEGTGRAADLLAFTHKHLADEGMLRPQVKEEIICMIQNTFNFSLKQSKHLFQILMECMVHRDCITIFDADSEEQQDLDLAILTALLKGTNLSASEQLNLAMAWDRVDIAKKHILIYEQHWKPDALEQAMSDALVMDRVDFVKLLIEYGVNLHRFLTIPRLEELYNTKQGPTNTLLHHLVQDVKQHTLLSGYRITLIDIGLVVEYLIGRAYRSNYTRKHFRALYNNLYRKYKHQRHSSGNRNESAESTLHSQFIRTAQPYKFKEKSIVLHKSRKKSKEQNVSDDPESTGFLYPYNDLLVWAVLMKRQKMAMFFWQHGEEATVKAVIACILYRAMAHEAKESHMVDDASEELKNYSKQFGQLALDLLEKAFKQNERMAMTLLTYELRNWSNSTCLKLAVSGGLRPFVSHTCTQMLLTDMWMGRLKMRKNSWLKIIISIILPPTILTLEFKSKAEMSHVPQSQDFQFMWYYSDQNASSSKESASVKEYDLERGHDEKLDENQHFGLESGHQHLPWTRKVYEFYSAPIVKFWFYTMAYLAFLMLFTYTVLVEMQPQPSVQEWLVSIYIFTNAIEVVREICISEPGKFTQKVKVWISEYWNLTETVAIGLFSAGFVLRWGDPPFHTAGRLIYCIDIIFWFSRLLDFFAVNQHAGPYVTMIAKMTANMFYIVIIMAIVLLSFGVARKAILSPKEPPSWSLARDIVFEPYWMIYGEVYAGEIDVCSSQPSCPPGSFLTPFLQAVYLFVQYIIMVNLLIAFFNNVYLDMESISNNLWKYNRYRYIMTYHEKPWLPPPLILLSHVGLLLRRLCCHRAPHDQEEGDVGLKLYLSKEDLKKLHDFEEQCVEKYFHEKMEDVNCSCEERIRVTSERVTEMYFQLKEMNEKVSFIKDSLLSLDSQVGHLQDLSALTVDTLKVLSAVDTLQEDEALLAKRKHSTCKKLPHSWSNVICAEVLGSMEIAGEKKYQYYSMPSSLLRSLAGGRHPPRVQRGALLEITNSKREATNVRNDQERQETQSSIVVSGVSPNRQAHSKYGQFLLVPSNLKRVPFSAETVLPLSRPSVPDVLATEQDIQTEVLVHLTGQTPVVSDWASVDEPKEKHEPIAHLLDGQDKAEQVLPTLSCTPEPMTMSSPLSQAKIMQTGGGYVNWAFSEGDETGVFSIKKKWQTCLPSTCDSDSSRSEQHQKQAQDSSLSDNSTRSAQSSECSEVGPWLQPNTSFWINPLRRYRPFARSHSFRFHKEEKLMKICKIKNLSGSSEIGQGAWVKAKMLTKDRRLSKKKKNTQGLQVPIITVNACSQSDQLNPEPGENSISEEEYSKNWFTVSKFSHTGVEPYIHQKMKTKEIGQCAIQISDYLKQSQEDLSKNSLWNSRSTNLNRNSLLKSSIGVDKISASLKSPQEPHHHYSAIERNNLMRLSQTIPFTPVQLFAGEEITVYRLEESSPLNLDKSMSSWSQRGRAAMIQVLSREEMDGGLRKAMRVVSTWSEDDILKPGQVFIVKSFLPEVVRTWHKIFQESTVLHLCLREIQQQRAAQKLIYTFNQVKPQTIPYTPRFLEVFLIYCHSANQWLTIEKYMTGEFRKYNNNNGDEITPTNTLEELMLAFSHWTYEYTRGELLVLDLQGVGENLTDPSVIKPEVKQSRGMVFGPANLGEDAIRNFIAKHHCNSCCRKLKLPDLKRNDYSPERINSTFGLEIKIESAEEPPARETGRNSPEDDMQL
# [2] = biological target: T3, ABL1(T315I)-nonphosphorylated (Homo sapiens, UniProt P00519, T315I)
# T3 construct: nonphosphorylated
# EPHA7 = EPHA7 (Homo sapiens, UniProt Q15375)
# FLT3(K663Q) = FLT3(K663Q) (Homo sapiens, UniProt P36888, K663Q)
# SNARK = biological target: T4, SNARK (Homo sapiens, UniProt Q9H093)
# T4 construct: gene NUAK2
# S6K1 = biological target: T5, S6K1 (Homo sapiens, UniProt P23443)
# T5 construct: gene RPS6KB1
# LRRK2 = LRRK2 (Homo sapiens, UniProt Q5S007)
# LRRK2, sequence (Q5S007 whole entry): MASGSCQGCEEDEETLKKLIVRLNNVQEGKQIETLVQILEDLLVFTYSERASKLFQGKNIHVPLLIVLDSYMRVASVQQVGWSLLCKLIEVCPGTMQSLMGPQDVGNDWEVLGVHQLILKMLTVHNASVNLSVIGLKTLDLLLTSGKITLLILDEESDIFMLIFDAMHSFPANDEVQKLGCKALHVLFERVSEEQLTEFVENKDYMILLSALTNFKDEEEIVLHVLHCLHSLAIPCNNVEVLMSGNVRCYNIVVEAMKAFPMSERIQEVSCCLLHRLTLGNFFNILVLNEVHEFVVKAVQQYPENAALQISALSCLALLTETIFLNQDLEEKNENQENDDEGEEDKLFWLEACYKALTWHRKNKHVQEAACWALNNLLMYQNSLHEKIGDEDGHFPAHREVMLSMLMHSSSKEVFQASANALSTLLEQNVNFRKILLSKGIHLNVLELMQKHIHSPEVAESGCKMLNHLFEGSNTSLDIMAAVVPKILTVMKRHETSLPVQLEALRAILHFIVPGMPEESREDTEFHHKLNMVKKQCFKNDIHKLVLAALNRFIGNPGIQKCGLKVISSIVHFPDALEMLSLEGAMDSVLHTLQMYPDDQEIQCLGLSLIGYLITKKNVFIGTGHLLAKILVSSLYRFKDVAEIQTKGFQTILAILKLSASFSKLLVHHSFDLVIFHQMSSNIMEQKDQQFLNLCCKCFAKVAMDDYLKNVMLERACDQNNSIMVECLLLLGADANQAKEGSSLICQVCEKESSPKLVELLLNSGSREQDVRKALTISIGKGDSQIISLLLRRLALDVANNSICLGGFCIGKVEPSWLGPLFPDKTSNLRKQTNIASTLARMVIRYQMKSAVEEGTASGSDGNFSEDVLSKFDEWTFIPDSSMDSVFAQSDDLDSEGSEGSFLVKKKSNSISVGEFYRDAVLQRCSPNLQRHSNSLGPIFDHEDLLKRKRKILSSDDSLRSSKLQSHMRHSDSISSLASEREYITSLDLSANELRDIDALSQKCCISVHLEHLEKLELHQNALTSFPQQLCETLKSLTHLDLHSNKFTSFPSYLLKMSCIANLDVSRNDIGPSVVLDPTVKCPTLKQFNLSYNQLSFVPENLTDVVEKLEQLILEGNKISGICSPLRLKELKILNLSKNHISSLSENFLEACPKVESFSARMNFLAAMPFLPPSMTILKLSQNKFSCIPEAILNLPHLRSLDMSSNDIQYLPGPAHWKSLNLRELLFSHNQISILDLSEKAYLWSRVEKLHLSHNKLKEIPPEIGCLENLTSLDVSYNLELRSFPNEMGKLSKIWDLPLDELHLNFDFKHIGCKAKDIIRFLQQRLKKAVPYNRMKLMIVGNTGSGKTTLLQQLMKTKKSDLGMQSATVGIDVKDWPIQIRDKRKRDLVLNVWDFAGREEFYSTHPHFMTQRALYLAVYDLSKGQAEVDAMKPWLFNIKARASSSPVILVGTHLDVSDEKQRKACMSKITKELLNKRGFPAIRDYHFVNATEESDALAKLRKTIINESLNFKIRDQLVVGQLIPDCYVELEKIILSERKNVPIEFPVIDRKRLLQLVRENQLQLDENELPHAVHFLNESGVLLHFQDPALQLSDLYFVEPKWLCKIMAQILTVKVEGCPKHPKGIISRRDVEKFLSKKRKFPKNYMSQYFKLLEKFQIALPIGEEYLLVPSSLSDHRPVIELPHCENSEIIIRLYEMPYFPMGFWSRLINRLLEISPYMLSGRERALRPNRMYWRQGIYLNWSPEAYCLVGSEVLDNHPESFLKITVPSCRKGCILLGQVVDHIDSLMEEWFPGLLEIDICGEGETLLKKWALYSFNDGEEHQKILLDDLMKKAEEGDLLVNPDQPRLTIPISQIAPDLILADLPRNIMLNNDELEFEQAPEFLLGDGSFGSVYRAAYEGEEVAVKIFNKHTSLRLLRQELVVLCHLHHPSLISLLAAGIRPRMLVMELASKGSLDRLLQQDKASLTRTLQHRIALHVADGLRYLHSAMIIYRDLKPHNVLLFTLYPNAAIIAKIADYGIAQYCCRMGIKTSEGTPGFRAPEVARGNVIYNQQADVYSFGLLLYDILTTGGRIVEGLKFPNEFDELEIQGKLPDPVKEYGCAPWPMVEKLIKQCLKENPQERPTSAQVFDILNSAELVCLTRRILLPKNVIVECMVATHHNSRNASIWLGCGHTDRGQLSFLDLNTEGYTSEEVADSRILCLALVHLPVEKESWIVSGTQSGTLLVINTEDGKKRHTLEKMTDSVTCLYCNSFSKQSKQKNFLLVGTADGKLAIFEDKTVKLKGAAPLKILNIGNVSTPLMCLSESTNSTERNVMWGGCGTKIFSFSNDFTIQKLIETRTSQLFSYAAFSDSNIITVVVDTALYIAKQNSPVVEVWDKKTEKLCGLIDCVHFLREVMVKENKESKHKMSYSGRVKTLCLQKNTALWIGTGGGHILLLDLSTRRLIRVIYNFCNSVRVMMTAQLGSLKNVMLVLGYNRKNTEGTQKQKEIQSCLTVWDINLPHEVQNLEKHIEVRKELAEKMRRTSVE
# DAPK2 = DAPK2 (Homo sapiens, UniProt Q9UIK4)
# MKK7 = biological target: T6, MKK7 (Homo sapiens, UniProt O14733)
# T6 construct: gene MAP2K7
# PIP5K1A = PIP5K1A (Homo sapiens, UniProt Q99755)
# YSK1 = biological target: T7, YSK1 (Homo sapiens, UniProt O00506)
# T7 construct: gene STK25
# T7 sequence (O00506 whole entry): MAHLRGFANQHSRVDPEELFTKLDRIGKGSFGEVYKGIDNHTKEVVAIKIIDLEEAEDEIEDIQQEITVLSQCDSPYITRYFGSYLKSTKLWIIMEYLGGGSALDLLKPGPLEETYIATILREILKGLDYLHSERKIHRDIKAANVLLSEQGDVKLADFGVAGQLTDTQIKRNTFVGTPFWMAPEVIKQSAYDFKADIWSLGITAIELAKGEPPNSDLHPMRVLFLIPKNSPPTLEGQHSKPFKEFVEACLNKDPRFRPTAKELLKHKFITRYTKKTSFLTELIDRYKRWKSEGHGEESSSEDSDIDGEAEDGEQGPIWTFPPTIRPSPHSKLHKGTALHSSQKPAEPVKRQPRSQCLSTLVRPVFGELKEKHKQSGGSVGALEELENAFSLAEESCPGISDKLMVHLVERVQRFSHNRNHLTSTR
# TGFBR1 = TGFBR1 (Homo sapiens, UniProt P36897)
# MRCKA = biological target: T8, MRCKA (Homo sapiens, UniProt Q5VT25)
# T8 construct: gene CDC42BPA
# WNK2 = WNK2 (Homo sapiens, UniProt Q9Y3S1)
structure (smiles),measurement,setting,value
"COc1cc2c(cn1)N(C)C(=O)[C@@H](NC(=O)c1nc3n(n1)[C@H](c1ccccc1)CC3)CC2 [GNE684, (S)-N-((S)-7-methoxy-1-methyl-2-oxo-2,3,4,5-tetrahydro-1H-pyrido[3,4-b]azepin-3-yl)-5-phenyl-6,7-dihydro-5H-pyrrolo[1,2-b][1,2,4]triazole-2-carboxamide]",remaining binding at 10 µM,ITK,100%
same,remaining binding at 10 µM,CLK1,90%
same,remaining binding at 10 µM,PLK2,97%
same,remaining binding at 10 µM,EPHB1,100%
same,remaining binding at 10 µM,p38-gamma,98%
same,remaining binding at 10 µM,[1],96%
same,remaining binding at 10 µM,PRKCD,86%
same,remaining binding at 10 µM,TRPM6,87%
same,remaining binding at 10 µM,[2],73%
same,remaining binding at 10 µM,EPHA7,100%
same,remaining binding at 10 µM,FLT3(K663Q),100%
same,remaining binding at 10 µM,SNARK,100%
same,remaining binding at 10 µM,S6K1,88%
same,remaining binding at 10 µM,LRRK2,91%
same,remaining binding at 10 µM,DAPK2,74%
same,remaining binding at 10 µM,MKK7,98%
same,remaining binding at 10 µM,PIP5K1A,99%
same,remaining binding at 10 µM,YSK1,90%
same,remaining binding at 10 µM,TGFBR1,97%
same,remaining binding at 10 µM,MRCKA,100%
same,remaining binding at 10 µM,WNK2,83%
